Values quoted from earlier work as cited in patent publication US6596714B1, “Parasiticidal formulation for animals and a method of making this formulation” (Phoenix Scientific, Inc., priority 2000, dated 2003).

System: cestode infestations

CN1CCCN=C1/C=C/c1cccs1 [pyrantel pamoate]
Effectiveness in treating cestode infestations (about three times the label recommended dosage, about 19.8 milligrams per kilogram of animal): about 100% | Average efficacy against cestode infestations (label dosage of about 6.6 milligrams per kilogram of animal, paste formulations, average): about 85%
